Literature values in patent US7208523B2, “Alanine- and glycine-containing therapeutic agent for hepatitis” (Ajinomoto Co., Inc., priority 2000, dated 2007).

Details: oral administration of glycine or alanine alone; galactosamine intraabdominal

Structure (SMILES)	inhibition of hepatopathy caused by galactosamine
C[C@H](N)C(=O)O [alanine]	inhibits
NCC(=O)O [glycine]	inhibits
